In ChEMBL document CHEMBL1139686, “Structure-based design, synthesis, and SAR evaluation of a new series of 8-hydroxyquinolines as HIF-1alpha prolyl hydroxylase inhibitors” (Bioorg Med Chem Lett, 2006) one finds EC50 and IC50 data, which are given here for 15 compounds.

The test system of test [1] is HEK293. In words: Induction of VEGF in HEK293 cells by ELISA. The note with it: Homo sapiens. For orientation: In an ELISA, binding on a coated surface is turned into a signal by an enzyme label.
Test [2] has as its target Egl nine homolog 1 (Homo sapiens, UniProt Q9GZT9). Briefly: Inhibition of human EGLN1.

Structures are written as SMILES. A value given as a limit tells only on which side of the number the result lay.

Sequence of Egl nine homolog 1 (Q9GZT9 whole entry): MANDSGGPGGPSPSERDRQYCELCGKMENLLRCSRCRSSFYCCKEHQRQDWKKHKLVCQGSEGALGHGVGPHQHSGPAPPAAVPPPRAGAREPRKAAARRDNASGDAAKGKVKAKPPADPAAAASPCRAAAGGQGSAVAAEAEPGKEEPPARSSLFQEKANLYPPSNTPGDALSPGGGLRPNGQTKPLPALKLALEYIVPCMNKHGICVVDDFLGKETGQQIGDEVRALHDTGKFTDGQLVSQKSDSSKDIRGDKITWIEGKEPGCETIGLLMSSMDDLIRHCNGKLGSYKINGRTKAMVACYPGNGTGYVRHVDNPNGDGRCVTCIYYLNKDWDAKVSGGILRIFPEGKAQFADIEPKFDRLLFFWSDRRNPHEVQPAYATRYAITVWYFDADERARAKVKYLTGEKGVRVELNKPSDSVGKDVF

With `O=C(Nc1cccnc1)c1ccc2cccnc2c1O`, in test [1], the half-maximal effective concentration (EC50) – broadly, the midpoint of the concentration-response curve – was found to be 1900 nM.
The same measure, in the same setting: under `COC(=O)c1ccc(NC(=O)c2ccc3cccnc3c2O)cc1` stands over 100000 nM; under `COc1cc(NC(=O)c2ccc3cccnc3c2O)cc(OC)c1`, 3200 nM; under `N#CCNC(=O)c1ccc2cccnc2c1O`, 4100 nM.
Consider `Cc1cc(F)cc(NC(=O)c2ccc3cccnc3c2O)c1`, for which, in test [1], the response was half-maximal at 890 nM (EC50).
In the case of `O=C(NCc1ccccc1)c1ccc2cccnc2c1O`, in test [1], a half-maximal response (EC50) required 890 nM.
Still for that read-out and setting: under `O=C(O)CNC(=O)c1ccc2cccnc2c1O` stands over 100000 nM; under `N#Cc1cccc(NC(=O)c2ccc3cccnc3c2O)c1`, 420 nM; under `O=C(Nc1ccccc1)c1ccc2cccnc2c1O`, 630 nM.
The same measure, in the same setting: in the case of `O=C(NCCc1ccccc1)c1ccc2cccnc2c1O` it was 580 nM.
In turn, `COc1ccc(CNC(=O)c2ccc3cccnc3c2O)cc1` returned an EC50 in test [1] of 620 nM.
In test [1], `N#Cc1ccc(NC(=O)c2ccc3cccnc3c2O)cc1` showed an EC50 of 140 nM.
Still for that read-out and setting: under `O=C(Nc1ccc(C(F)(F)F)cc1)c1ccc2cccnc2c1O` stands over 100000 nM.
With `O=C(O)c1ccc2cccnc2c1O`, in test [2], the IC50 – broadly, the concentration that inhibits the measured activity by half – was over 100000 nM.
In test [1], `O=C(NCc1ccc(Cl)cc1)c1ccc2cccnc2c1O` showed an EC50 of 3100 nM.
